In assay [1] the target is SRSF protein kinase 3 (Homo sapiens) (UniProt Q9UPE1). The note with it: at 10 µM.
The target of assay [2] is Dual specificity protein kinase CLK4 (Homo sapiens, UniProt Q9HAZ1). The experiment in a line: Selectivity interaction (KinomeScan (DiscoverX)) EUB0000092b CLK4. The settings on record: at 10 µM.
Assay [3] has as its target Cholecystokinin receptor type A (Homo sapiens) (UniProt P32238). The assay is described as follows: Selectivity interaction (Panel of non-epigenetic targets (kinases, GPCRs, ion channels, and transporters, Eurofins) ) EUB0000271b CCKAR. The note with it: at 1 µM.
For assay [4], the target named is Histone-lysine N-methyltransferase, H3 lysine-36 specific (Homo sapiens) (UniProt Q96L73). The assay is described as follows: Selectivity interaction (Methyltransferase screen (radiometric assays, panel of 8 PRMTs, 21 protein lysine methyltransferases, 3 DNA methyltransferases, and one RNA methyltransferase)) EUB0000271b NSD1.
The target in assay [5] is T1, Serine/threonine-protein kinase MAK (Homo sapiens) (UniProt P20794).
T1 sequence (whole entry): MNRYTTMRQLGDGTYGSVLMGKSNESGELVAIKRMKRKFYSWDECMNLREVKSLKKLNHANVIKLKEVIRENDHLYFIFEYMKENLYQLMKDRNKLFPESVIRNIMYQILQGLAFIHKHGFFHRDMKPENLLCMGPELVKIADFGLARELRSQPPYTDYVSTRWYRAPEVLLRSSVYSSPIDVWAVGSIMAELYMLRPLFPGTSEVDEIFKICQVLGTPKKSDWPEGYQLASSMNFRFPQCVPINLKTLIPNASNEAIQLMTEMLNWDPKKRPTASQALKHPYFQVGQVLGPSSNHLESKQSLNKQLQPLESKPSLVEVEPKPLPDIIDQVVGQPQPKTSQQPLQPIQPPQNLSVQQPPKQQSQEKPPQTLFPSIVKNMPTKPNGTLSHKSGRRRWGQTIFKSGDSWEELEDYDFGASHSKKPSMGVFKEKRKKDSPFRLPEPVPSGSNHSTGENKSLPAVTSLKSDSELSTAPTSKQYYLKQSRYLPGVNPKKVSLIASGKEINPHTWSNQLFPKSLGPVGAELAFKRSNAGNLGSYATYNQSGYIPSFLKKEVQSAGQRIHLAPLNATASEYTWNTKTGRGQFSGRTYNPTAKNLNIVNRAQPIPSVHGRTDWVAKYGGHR
The experiment in a line: Selectivity interaction (KinomeScan (DiscoverX)) EUB0000666a MAK. The settings on record: at 10 µM.

The target of assay [6] is Serine/threonine-protein kinase ATR (Homo sapiens) (UniProt Q13535). The experiment in a line: Selectivity interaction (ActivX KiNativ screen (kinase selectivity in THP-1 cell lysates)) EUB0000639a ATR. The settings on record: lysate. The class given is subcellular.
Sequence of Serine/threonine-protein kinase ATR (Homo sapiens) (Q13535 whole entry, looked up): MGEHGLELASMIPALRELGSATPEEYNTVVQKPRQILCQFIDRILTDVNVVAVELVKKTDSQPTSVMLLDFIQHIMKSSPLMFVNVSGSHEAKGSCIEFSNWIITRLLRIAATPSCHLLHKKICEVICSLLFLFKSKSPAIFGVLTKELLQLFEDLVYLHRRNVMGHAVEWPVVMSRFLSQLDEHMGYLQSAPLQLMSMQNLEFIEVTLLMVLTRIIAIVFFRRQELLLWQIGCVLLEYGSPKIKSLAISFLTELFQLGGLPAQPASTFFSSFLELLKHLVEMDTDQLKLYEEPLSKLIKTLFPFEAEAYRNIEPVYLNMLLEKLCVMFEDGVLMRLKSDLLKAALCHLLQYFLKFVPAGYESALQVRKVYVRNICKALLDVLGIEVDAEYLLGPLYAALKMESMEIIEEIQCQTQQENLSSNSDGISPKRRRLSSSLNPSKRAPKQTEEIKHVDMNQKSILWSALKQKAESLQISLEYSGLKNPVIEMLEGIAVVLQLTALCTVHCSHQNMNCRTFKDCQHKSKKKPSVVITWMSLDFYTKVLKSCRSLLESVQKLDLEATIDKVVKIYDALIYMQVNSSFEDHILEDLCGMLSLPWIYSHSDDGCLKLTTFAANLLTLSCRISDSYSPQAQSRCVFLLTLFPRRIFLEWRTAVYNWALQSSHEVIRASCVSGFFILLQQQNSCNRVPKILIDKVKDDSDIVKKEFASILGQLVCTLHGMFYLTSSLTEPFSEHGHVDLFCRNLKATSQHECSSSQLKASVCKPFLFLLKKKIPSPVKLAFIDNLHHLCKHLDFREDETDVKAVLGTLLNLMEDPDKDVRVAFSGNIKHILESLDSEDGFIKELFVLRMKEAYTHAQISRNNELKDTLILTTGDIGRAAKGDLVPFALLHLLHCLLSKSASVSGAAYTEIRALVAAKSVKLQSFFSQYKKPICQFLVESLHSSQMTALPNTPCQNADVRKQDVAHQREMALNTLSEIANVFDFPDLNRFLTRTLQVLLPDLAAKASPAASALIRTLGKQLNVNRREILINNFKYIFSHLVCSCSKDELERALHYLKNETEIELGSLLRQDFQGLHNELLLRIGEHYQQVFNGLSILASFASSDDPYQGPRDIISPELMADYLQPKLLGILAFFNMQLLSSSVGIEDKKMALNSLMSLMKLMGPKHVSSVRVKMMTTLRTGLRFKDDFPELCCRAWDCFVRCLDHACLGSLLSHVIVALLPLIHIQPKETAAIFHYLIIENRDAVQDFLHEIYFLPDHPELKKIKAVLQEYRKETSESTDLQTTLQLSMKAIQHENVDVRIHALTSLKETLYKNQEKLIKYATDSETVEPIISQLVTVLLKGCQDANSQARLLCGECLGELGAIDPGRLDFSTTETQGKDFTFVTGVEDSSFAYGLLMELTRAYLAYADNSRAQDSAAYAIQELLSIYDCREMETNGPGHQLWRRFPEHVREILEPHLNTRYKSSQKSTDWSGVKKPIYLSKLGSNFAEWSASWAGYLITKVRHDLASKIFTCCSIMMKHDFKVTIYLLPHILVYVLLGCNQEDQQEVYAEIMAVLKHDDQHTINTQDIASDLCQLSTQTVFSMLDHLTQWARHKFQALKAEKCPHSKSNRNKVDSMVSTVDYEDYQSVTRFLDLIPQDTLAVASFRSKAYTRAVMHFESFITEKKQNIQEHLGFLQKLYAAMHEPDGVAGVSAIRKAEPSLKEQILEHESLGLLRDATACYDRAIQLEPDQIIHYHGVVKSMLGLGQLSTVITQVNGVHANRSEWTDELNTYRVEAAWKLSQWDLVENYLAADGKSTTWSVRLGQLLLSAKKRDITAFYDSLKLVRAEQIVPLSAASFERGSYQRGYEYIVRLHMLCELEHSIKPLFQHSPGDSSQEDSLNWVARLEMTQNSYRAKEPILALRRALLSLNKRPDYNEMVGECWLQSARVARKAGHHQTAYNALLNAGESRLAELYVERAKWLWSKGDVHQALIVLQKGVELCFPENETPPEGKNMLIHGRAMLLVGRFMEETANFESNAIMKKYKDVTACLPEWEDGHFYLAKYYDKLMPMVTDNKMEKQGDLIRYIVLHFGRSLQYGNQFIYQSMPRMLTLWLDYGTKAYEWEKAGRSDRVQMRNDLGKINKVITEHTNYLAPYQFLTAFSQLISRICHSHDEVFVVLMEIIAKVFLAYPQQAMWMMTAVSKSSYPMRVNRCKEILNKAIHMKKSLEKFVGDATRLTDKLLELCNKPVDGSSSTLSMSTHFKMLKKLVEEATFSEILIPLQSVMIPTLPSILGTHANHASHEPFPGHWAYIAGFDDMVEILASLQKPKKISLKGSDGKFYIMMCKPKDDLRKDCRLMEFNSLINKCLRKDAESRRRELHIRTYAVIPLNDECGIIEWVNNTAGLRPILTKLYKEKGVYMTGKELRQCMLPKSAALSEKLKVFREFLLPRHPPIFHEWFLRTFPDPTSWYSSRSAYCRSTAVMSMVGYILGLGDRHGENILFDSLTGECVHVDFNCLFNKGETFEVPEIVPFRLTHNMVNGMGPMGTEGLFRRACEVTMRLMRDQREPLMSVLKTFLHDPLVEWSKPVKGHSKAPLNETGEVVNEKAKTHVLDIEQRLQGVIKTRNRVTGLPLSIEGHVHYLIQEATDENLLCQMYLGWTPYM
In assay [7] the target is T2, Dual specificity mitogen-activated protein kinase kinase 3 (Homo sapiens) (UniProt P46734).
T2 sequence (whole entry): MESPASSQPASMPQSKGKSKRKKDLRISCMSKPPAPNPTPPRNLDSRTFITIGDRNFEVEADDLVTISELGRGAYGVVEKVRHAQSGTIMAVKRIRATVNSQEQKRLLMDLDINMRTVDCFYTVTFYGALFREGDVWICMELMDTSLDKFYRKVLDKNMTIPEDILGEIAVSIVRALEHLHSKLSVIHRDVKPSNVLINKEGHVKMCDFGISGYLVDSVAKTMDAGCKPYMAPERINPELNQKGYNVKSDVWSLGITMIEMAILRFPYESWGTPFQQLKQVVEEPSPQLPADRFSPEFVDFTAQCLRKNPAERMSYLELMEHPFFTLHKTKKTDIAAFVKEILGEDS
The experiment in a line: Selectivity interaction (ActivX KiNativ screen (ex vivo kinase selectivity in human PBMCs)) EUB0001619a MAP2K3. The class given is cell-based. The note with it: PBMC, at 1 µM.

Assay [8] deals with T3, Mitogen-activated protein kinase kinase kinase 7 (Homo sapiens) (UniProt O43318).
T3 sequence (whole entry): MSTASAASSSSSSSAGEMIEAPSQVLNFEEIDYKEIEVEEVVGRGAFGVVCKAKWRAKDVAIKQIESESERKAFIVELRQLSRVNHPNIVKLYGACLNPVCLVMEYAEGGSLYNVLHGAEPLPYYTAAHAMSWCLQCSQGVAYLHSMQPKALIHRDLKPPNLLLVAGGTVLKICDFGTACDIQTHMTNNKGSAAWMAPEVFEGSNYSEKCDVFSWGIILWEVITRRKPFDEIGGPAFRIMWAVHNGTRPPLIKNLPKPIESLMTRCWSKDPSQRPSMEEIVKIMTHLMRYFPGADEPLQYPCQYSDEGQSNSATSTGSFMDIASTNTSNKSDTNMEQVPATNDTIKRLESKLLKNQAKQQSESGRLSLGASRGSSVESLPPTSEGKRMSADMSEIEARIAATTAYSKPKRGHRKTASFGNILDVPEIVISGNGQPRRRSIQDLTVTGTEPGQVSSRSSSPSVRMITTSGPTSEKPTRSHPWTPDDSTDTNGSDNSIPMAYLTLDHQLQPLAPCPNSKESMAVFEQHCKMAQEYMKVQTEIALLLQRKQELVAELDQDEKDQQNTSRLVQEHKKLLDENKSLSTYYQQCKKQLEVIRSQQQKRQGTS
The assay is described as follows: Selectivity interaction (ActivX KiNativ screen (ex vivo kinase selectivity in human PBMCs)) EUB0001619a MAP3K7. The class given is cell-based. The note with it: PBMC, at 1 µM.

Assay [9] addresses Mitogen-activated protein kinase 7 (Homo sapiens) (UniProt Q13164). The assay is described as follows: Selectivity interaction (KinomeScan (DiscoverX)) EUB0000618a MAPK7. The settings on record: at 10 µM.

Sequence of Dual specificity protein kinase CLK4 (Q9HAZ1 whole entry, looked up): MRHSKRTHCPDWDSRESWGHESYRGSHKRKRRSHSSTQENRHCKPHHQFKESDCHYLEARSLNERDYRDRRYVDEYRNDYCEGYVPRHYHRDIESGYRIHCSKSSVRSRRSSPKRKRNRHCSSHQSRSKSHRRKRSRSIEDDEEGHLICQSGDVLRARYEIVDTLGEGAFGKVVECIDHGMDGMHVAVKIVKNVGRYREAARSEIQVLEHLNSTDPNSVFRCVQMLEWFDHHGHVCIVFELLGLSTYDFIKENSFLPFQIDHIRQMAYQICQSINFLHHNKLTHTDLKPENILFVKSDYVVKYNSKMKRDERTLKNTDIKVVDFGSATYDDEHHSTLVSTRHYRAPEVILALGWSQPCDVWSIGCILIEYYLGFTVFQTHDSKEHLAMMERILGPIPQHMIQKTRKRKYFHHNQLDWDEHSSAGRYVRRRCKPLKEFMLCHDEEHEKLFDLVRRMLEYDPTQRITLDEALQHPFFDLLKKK
Sequence of Mitogen-activated protein kinase 7 (Homo sapiens) (Q13164 2-816 limits assumed): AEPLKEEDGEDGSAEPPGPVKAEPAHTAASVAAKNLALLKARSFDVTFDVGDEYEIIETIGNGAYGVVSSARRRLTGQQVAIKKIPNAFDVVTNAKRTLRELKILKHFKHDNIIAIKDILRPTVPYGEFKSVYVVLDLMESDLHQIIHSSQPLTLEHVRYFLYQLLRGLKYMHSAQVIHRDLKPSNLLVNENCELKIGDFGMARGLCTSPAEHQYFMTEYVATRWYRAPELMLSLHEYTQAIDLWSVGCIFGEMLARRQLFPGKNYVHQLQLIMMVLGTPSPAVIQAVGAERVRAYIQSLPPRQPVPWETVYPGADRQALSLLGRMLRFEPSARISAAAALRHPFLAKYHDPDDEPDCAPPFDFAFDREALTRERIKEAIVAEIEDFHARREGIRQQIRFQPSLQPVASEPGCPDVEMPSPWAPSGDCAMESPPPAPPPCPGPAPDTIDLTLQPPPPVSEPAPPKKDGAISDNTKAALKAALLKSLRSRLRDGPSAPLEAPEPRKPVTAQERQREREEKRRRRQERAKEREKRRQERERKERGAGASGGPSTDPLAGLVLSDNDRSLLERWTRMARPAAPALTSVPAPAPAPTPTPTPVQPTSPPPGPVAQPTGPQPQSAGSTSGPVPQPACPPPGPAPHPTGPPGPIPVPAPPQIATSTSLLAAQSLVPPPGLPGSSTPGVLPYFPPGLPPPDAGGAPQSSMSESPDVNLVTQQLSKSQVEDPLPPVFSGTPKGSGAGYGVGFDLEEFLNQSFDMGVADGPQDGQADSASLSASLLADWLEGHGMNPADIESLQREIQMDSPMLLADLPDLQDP
Sequence of Cholecystokinin receptor type A (Homo sapiens) (P32238 whole entry): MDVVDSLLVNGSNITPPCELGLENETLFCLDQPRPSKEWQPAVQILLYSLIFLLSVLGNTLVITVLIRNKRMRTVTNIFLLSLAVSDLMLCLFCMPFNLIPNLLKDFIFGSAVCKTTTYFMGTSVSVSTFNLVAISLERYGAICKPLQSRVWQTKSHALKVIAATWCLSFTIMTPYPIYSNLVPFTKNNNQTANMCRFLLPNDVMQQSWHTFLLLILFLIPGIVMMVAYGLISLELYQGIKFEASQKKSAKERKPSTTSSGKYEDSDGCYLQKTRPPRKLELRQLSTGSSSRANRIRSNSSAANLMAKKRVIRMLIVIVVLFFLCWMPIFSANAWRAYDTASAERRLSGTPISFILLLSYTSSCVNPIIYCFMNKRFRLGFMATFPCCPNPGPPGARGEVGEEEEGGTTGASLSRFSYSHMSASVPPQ
Sequence of SRSF protein kinase 3 (Homo sapiens) (Q9UPE1 whole entry): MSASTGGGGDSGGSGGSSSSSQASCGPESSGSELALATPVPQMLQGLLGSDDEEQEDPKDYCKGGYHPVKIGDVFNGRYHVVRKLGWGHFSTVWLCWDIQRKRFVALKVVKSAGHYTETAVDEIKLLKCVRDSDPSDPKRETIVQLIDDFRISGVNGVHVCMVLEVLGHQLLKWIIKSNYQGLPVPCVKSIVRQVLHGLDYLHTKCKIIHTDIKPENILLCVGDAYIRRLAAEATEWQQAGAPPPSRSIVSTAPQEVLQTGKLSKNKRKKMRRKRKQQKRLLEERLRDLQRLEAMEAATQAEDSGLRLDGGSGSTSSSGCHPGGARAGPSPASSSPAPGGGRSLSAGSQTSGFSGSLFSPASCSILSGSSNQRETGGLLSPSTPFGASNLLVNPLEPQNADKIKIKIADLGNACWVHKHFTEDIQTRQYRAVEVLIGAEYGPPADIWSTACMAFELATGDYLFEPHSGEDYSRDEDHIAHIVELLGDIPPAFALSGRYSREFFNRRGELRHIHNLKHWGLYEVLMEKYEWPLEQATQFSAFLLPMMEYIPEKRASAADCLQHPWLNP

In the case of `Cc1cc([C@@H](C)Nc2ccccc2C(=O)O)c2nc(N3CCOCC3)cc(=O)n2c1` [AZD-6482], the % of control in [1] came to 100%.
As for `CCC(=O)N1CCN(c2ccc(-n3c(=O)ccc4cnc5ccc(-c6cnc7ccccc7c6)cc5c43)cc2C(F)(F)F)CC1`, the % of control in assay [2] came out at 49%.
On to `Cc1cc(C)cc([C@@H]2c3cc(C)ccc3NC(=O)CN2C(=O)c2ccc(Br)s2)c1`, for which, in assay [3], the % of inhibition came out at 1%. Moreover, the % of activity in [4] (at 1 µM) worked out at 97%; in [4] (at 10 µM), 103%.
`O=C(NOC[C@H](O)CO)c1ccc(F)c(F)c1Nc1ccc(I)cc1F` displayed a % of control in assay [5] of 100%.
For the compound `CC[C@@H]1[C@H](F)C(=O)N[C@@H]1COc1nccc2cc(C(N)=O)c(OC)cc12` [ZIMLOVISERTIB], the % of inhibition was 14.9% in assay [6] (at 0.01 µM); 0% in assay [6] (at 0.04 µM); -4.2% in [6] (at 0.2 µM); 14.1% in assay [6] (at 1 µM); 18.6% in [6] (at 5 µM).
As to `N#Cc1cccc(-c2c[nH]c3ncnc(N4CCOCC4)c23)c1`, the % of inhibition is -5% in assay [7] and 21% in assay [8].
As to `O[C@H]1CC[C@H](Nc2ncc3nc(Nc4c(F)cc(F)cc4F)n([C@H]4CCOC4)c3n2)CC1`, in [9], the % of control was determined as 90%.
